Assay: Biodistribution of Al^18F(IMP485) alone or TF2 pretargeted
Conditions: mouse, in vivo, iv
Experimental: Mice were necropsied at 1 and 3 h post injection, 7 mice per time point.
Biodistribution studies were performed in Taconic nude mice bearing subcutaneous LS174T tumor xenografts.
Mice were necropsied at 1 and 3 h post injection, 6 mice per time point.

[1] = Taconic nude, % ID/org Lg. Int.
[2] = Taconic nude, % ID/org Sm. Int.
[3] = nude (Taconic), 28 uCi, total radioactivity, % ID/g Lung

Q: Which tissue uptake at 3 h (Taconic nude) does the source give for `NC(=O)[C@@H](CCCCNC(=O)CNC(=O)CCC(=O)NCCc1c[nH]cn1)NC(=O)[C@@H](Cc1ccc(O)cc1)NC(=O)[C@@H](CCCCNC(=O)CNC(=O)CCC(=O)NCCc1c[nH]cn1)NC(=O)Cc1ccc(CN2CCN(CC(=O)O)CCN(CC(=O)O)CC2)cc1` [Al^18F(IMP485)] here?
A: 0.353 %ID/g

Q: And the tissue uptake at 3 h (Taconic nude, % ID/g Blood)?
A: 0.023 %ID/g

Q: And the tissue uptake at 1 h (Taconic nude, % ID/g Kidney)?
A: 3.19 %ID/g

Q: And the tissue uptake at 1 h (Taconic nude, % ID/g Lg. Int.)?
A: 0.104 %ID/g

Q: And the tissue uptake at 3 h (Taconic nude, % ID/g Lg. Int.)?
A: 0.35 ± 0.16 %ID/g

Q: And the tissue uptake at 1 h (Taconic nude, % ID/g Liver)?
A: 0.237 %ID/g

Q: What about the tissue uptake at 3 h (Taconic nude, % ID/g Lung) of the same molecule?
A: 0.244 %ID/g

Q: What about the tissue uptake at 1 h (Taconic nude, % ID/g Muscle) of the same molecule?
A: 0.136 %ID/g

Q: What about the tissue uptake at 3 h (Taconic nude, % ID/g Muscle) of the same molecule?
A: 0.025 %ID/g

Q: What about the tissue uptake at 1 h (Taconic nude, % ID/g Scapula) of the same molecule?
A: 0.5 %ID/g

Q: And the tissue uptake at 3 h (Taconic nude, % ID/g Sm. Int.)?
A: 0.071 %ID/g

Q: And the tissue uptake at 1 h (Taconic nude, % ID/g Spleen)?
A: 0.254 %ID/g

Q: What about the tissue uptake at 3 h (Taconic nude, % ID/g Stomach) of the same molecule?
A: 0.025 %ID/g

Q: And the tissue uptake at 1 h (Taconic nude, % ID/g Tumor)?
A: 28.1 %ID/g

Q: What about the tissue uptake dose at 3 h (Taconic nude, % ID/org Blood) of the same molecule?
A: 0.037 %ID

Q: What about the tissue uptake dose at 1 h (Taconic nude, % ID/org Kidney) of the same molecule?
A: 0.444 %ID

Q: And the tissue uptake dose at 1 h [1]?
A: 0.055 %ID

Q: What about the tissue uptake dose at 3 h [1] of the same molecule?
A: 0.206 %ID

Q: And the tissue uptake dose at 1 h (Taconic nude, % ID/org Liver)?
A: 0.295 %ID

Q: What about the tissue uptake dose at 3 h (Taconic nude, % ID/org Lung) of the same molecule?
A: 0.035 %ID

Q: And the tissue uptake dose at 1 h (Taconic nude, % ID/org Muscle)?
A: 0.012 %ID

Q: What about the tissue uptake dose at 3 h (Taconic nude, % ID/org Muscle) of the same molecule?
A: 0.002 %ID

Q: What about the tissue uptake dose at 1 h (Taconic nude, % ID/org Scapula) of the same molecule?
A: 0.095 %ID

Q: What about the tissue uptake dose at 1 h [2] of the same molecule?
A: 0.586 %ID

Q: And the tissue uptake dose at 3 h [2]?
A: 0.059 %ID

Q: What about the tissue uptake dose at 1 h (Taconic nude, % ID/org Spleen) of the same molecule?
A: 0.02 %ID

Q: And the tissue uptake dose at 3 h (Taconic nude, % ID/org Stomach)?
A: 0.01 %ID

Q: What about the tissue uptake dose at 1 h (Taconic nude, % ID/org Tumor) of the same molecule?
A: 8.03 %ID

Q: What about the tissue uptake at 1 h (nude (Taconic), 28 uCi, total radioactivity) of the same molecule?
A: 0.114 %ID/g

Q: And the tissue uptake at 1 h (nude (Taconic), 28 uCi, total radioactivity, % ID/g Blood)?
A: 0.165 %ID/g

Q: What about the tissue uptake at 1 h (nude (Taconic), 28 uCi, total radioactivity, % ID/g Lg. Int.) of the same molecule?
A: 0.081 %ID/g

Q: What about the tissue uptake at 1 h (nude (Taconic), 28 uCi, total radioactivity, % ID/g Liver) of the same molecule?
A: 0.176 %ID/g

Q: What about the tissue uptake at 1 h [3] of the same molecule?
A: 0.238 %ID/g

Q: And the tissue uptake at 3 h [3]?
A: 0.073 %ID/g

Q: And the tissue uptake at 1 h (nude (Taconic), 28 uCi, total radioactivity, % ID/g Scapula, alone, 1 h post injection)?
A: 0.107 %ID/g

Q: What about the tissue uptake at 1 h (nude (Taconic), 28 uCi, total radioactivity, % ID/g Sm. Int., alone, 1 h post injection) of the same molecule?
A: 0.396 %ID/g

Q: And the tissue uptake at 1 h (nude (Taconic), 28 uCi, total radioactivity, % ID/g Spleen, alone, 1 h post injection)?
A: 0.21 %ID/g

Q: What about the tissue uptake at 1 h (nude (Taconic), 28 uCi, total radioactivity, % ID/g Stomach, alone, 1 h post injection) of the same molecule?
A: 0.126 %ID/g

Q: And the tissue uptake at 1 h (nude (Taconic), 28 uCi, total radioactivity, % ID/g Tumor, alone, 1 h post injection)?
A: 0.316 %ID/g

Q: And the tissue uptake dose at 1 h (nude (Taconic), 28 uCi, total radioactivity, % ID/org Blood, alone, 1 h post injection)?
A: 0.268 %ID

Q: And the tissue uptake dose at 1 h (nude (Taconic), 28 uCi, total radioactivity, % ID/org Kidney, alone, 1 h post injection)?
A: 0.499 %ID

Q: And the tissue uptake dose at 1 h (nude (Taconic), 28 uCi, total radioactivity, % ID/org Lg. Int., alone, 1 h post injection)?
A: 0.041 %ID

Q: What about the tissue uptake dose at 1 h (nude (Taconic), 28 uCi, total radioactivity, % ID/org Liver, alone, 1 h post injection) of the same molecule?
A: 0.22 %ID

Q: And the tissue uptake dose at 1 h (nude (Taconic), 28 uCi, total radioactivity, % ID/org Lung, alone, 1 h post injection)?
A: 0.033 %ID

Q: And the tissue uptake dose at 1 h (nude (Taconic), 28 uCi, total radioactivity, % ID/org Scapula, alone, 1 h post injection)?
A: 0.006 %ID

Q: What about the tissue uptake dose at 1 h (nude (Taconic), 28 uCi, total radioactivity, % ID/org Sm. Int., alone, 1 h post injection) of the same molecule?
A: 0.353 %ID

Q: And the tissue uptake dose at 1 h (nude (Taconic), 28 uCi, total radioactivity, % ID/org Spleen, alone, 1 h post injection)?
A: 0.018 %ID

Q: What about the tissue uptake dose at 1 h (nude (Taconic), 28 uCi, total radioactivity, % ID/org Stomach, alone, 1 h post injection) of the same molecule?
A: 0.057 %ID

Q: What about the tissue uptake dose at 1 h (nude (Taconic), 28 uCi, total radioactivity, % ID/org Tumor, alone, 1 h post injection) of the same molecule?
A: 0.081 %ID

Q: And the tissue uptake at 3 h (nude (Taconic), total radioactivity, % ID/g Kidney)?
A: 2.22 %ID/g

Q: What about the tissue uptake at 3 h (nude (Taconic), total radioactivity, % ID/g Liver) of the same molecule?
A: 0.142 %ID/g

Q: What about the tissue uptake at 3 h (nude (Taconic), total radioactivity, % ID/g Scapula) of the same molecule?
A: 0.058 %ID/g

Q: And the tissue uptake at 3 h (nude (Taconic), total radioactivity, % ID/g Spleen)?
A: 0.138 %ID/g

Q: What about the tissue uptake dose at 3 h (nude (Taconic), total radioactivity, % ID/org Kidney) of the same molecule?
A: 0.319 %ID

Q: What about the tissue uptake dose at 3 h (nude (Taconic), total radioactivity, % ID/org Liver) of the same molecule?
A: 0.178 %ID

Q: And the tissue uptake dose at 3 h (nude (Taconic), total radioactivity, % ID/org Scapula)?
A: 0.008 %ID

Q: What about the tissue uptake dose at 3 h (nude (Taconic), total radioactivity, % ID/org Spleen) of the same molecule?
A: 0.011 %ID

Q: What about the tissue uptake dose at 3 h (nude (Taconic), total radioactivity, % ID/org Tumor) of the same molecule?
A: 8.13 %ID

Q: What about the tissue uptake at 3 h (nude, 28 uCi, total radioactivity, % ID/g Lg. Int.) of the same molecule?
A: 0.713 %ID/g

Q: And the tissue uptake at 3 h (nude, 28 uCi, total radioactivity, % ID/g Liver)?
A: 0.095 %ID/g

Q: And the tissue uptake at 3 h (nude, 28 uCi, total radioactivity, % ID/g Muscle)?
A: 0.013 %ID/g

Q: And the tissue uptake at 3 h (nude, 28 uCi, total radioactivity, % ID/g Sm. Int., alone, 3 h post injection)?
A: 0.137 %ID/g

Q: What about the tissue uptake at 3 h (nude, 28 uCi, total radioactivity, % ID/g Spleen, alone, 3 h post injection) of the same molecule?
A: 0.065 %ID/g

From patent US20160199524A1, “RADIOSENSITIVITY OF FLUOROPHORES AND USE OF RADIOPROTECTIVE AGENTS FOR DUAL-MODALITY IMAGING” (Immunomedics, Inc., priority 2015, published 2016)
